Test results from patent publication US7408048B2, “Mammalian grainyhead transcription factors” (Melbourne Health, priority 2002, dated 2008).
Marks after values point to notes of the source that are not given here.

B1: bom: brother of mammalian grainyhead; region comparable to first 93 amino acids of p70 MGR fused to GAL4 DNA binding domain (protein)
chain: MSQESDNNKRLVALVPMPSDPPFNTRRAYTSEDEAWKSYLENPLTAATKAMMSINGDEDSAAALGLLYDYYKVPRDKRLLSVSKASDSQEDQEKRNCLGTSEAQSNLSGGENRVQVLKTVPVNLSLNQDHLENSKREQYSISFPESSAIIPVSGITVVKAEDFTPVFMAPPVHYPRGDGEEQRVVIFEQTQYDVPSLATHSAYLKDDQRSTPDSTYSESFKDAATEKFRSASVGAEEYMYDQTSSGTFQYTLEATKSLRQKQGEGPMTYLNKGQFYAITLSETGDNKCFRHPISKVRSVVMVVFSEDKNRDEQLKYWKYWHSRQHTAKQRVLDIADYKESFNTIGNIEEIAYNAVSFTWDVNEEAKIFITVNCLSTDFSSQKGVKGLPLMIQIDTYSYNNRSNKPIHRAYCQIKVFCDKGAERKIRDEERKQNRKKGKGQASQTQCNSSSDGKLAAIPLQKKSDITYFKTMPDLHSQPVLFIPDVHFANLQRTGQVYYNTDDEREGGSVLVKRMFRPMEEEFGPVPSKQMKEEGTKRVLLYVRKETDDVFDALMLKSPTVKGLMEAISEKYGLPVEKIAKLYKKSKKGILVNMDDNIIEHYSNEDTFILNMESMVEGFKVTLMEI
modifications: human
B2: p49 mgr: human mammalian Grainyhead isoform p49, SEQ ID NO:2; full length fused to GAL4 DNA binding domain (protein)
chain: MASLWESPQQCIILSPLSGWWFSIGISILTSSALVLKPQMLKGELQTRPSQRPSRKAFRRNNFEYTLEASKSLRQKPGDSTMTYLNKGQFYPITLKEVSSSEGIHHPISKVRSVIMVVFAEDKSREDQLRHWKYWHSRQHTAKQRCIDIADYKESFNTISNIEEIAYNAISFTWDINDEAKVFISVNCLSTDFSSQKGVKGLPLNIQVDTYSYNNRSNKPVHRAYCQIKVFCDKGAERKIRDEERKQSKRKVSDVKVPLLPSHKRMDITVFKPFIDLDTQPVLFIPDVHFANLQRGTHVLPIASEELEGEGSVLKRGPYGTEDDFAVPPSTKLARIEEPKRVLLYVRKESEEVFDALMLKTPSLKGLMEAISDKYDVPHDKIGKIFKKCKKGILVNMDDNIVKHYSNEDT
modifications: GAL4 DNA-binding domain fusion; human

Assays:
GRHL-3^−/− mice = format: in vivo, mouse; conditions: for Observed NTDs: GRHL-3^−/− embryos from GRHL-3^+/− intercrosses, given to pregnant females, embryos harvested E14.5; for Predicted NTDs: predicted from the response of ct/ct embryos; for Mean litter size / frequency of resorptions: mouse, in vivo
Experimental: GRHL-3^+/− mice were inter-crossed and folate, inositol or PBS placebo was administered to pregnant females as previously described. Embryos were harvested on E14.5 and genotyped and examined morphologically. […] The results were analysed statistically by the one-sided binomial probability test. NTDs in the curly tail mice are resistant to folate administered in early gestation. […] The effects of folate and inositol administration on pregnant GRHL-3^+/− mice previously mated with GRHL-3^+/− males was examined (Table 6). As expected, no rescue of spina bifida in GRHL-3^−/− embryos with placebo or folate treatment was observed. […] Although the numbers of embryos examined was small, the result was highly significant (p<0.001) given the 70% reduction in the incidence of spina bifida in inositol-treated ct/ct embryos. These findings indicate that GRHL-3 expression is essential for inositol-mediated rescue of folate-resistant NTDs.

[1] = system: five concatamerized GAL4 DNA binding sites upstream of the CAT gene in 293T cell line; assay: GAL4 DNA binding domain fusion / CAT reporter co-transfection; format: cell-based; conditions: fused to GAL4 DNA binding domain, human 293T cell line
Text: Although significant sequence homology exists between grh and the shorter mgr isoforms and p70 mgr, the isoleucine rich transcriptional activation domain identified in the fly protein is not conserved. […] In view of the high degree of conservation of the first three coding exons of p70 mgr and bom, it was postulated that this could be the functional domain responsible for activation. To address this, the cDNA fragment encoding the first 93 amino acids of human p70 MGR (encoded by the first three exons) was subcloned in frame with the GAL4 DNA binding domain in a mammalian expression vector. […] These plasmids were co-transfected into the human 293T cell line with a reporter plasmid containing five concatamerized GAL4 DNA binding sites upstream of the chloramphenicol acetyltransferase (CAT) gene. The vector containing only the GAL4 DNA-BD or containing the VP16 activation domain fused to the GAL DNA-BD served as the negative and positive controls, respectively.

human En-1 promoter [2] = assay: En-1 promoter / luciferase reporter transfection in COS cells; format: cell-based; conditions: p70 MGR expression vector vs empty vector, MGR null cell line COS
Text: (§1) FIG. 3 are representations showing that p70 MGR binds to and transactivates the human En-1promoter. (A) Identifcation of a grh consensus DNA binding site in the human En-1promoter. The consensus sequence for grh DNA binding (SEQ ID NO: 50) compiled from an alignment of the Drosophila Ultrabithorax, Dopa decarboxylase and fushi tarazu promoters was compared with the sequence of the proximal human En-1 promoter (SEQ ID NO: 49) and the Drosophilaengrailed promoter (SEQ ID NO: 48). The closed bracket indicates the extend of the grainyhead binding site in the engrailed promoter as defined by DNAseI footprinting. (B) Human p70 MGR binds 5 to the human En-1 promoter. Nuclear extract from the JEG-3 cell line was studied in an EMSA with a Ddc promoter probe in the presence of pre-immune sera (lane 1), anti-MGR specific antisera (detailed in legend to FIG. 2) (lane 2) or cold competitor DNA (lanes 3-5). A 50-fold excess of the Ddc probe was used in lane 3 and a 10- and 20-fold excess of a human En-1promoter probe in lanes 4 and 5, respectively. The migration of the MGR/DNA complex is shown by arrows. (C) Human p70 MGR transactivates the En-1promoter. […]

Drosophila PCNA promoter = assay: EMSA with JEG-3 nuclear extract, PCNA promoter probe; format: binding; conditions: anti-MGR antisera
Text: (§2) FIG. 2 is a photographic representation showing that p70 MGR binds to Drosophila gene regulatory sequences which bind grh. (A) p70 MGR binds to the Drosophila PCNA promoter. Nuclear extract from the JEG-3 cell line was studied in an EMSA with a PCNA promoter probe in the presence and absence of anti-MGR specific antisera. Antisera 611 was raised against peptides common to the p70 and p49 MGR proteins in the dimerization domain and antisera 67 was raised against unique peptides in the NH2-terminal domain of p70 MGR. The migration of the MGR complex is shown in arrows. (B) p70 MGR binds to the Drosophila dopo decarboxylase promoter. Experimental conditions were as described for (A).
(§3) To determine the extent of the functional homology between GRH and MGR, it was initially examined whether the mammalian protein could bind to the well-characterized binding sites for the Drosophila factor in the Dopa decarboxylase and PCNA gene regulatory regions (Uv et al., Mol. Cell. Biol. 17: 6727-6735, 1997; Hayashi et al., J. Biol. Chem. 274: 35080-35088, 1999). Oligonucleotide probes encompassing these sites were incubated with nuclear extract from the human placental cell line JEG-3, which expresses both isoforms of MGR at RNA and protein level and analyzed in an electrophoretic mobility shift assay (EMSA). […]

[3] = system: Drosophila dopa decarboxylase promoter; assay: EMSA with JEG-3 nuclear extract, Dopa decarboxylase promoter probe; format: binding; conditions: anti-MGR antisera
Text: as §2, §3

human En-1 promoter [4] = assay: EMSA competition with JEG-3 nuclear extract, En-1 promoter probe; format: binding; conditions: cold En-1 probe competing with Ddc probe
Text: as §1

curly tail (ct/ct) mice = conditions: cited from earlier work

Molecule	Observed NTDs (GRHL-3^−/− mice)	Predicted NTDs (GRHL-3^−/− mice; GRHL-3^−/− embryos) [%]	Mean litter size (GRHL-3^−/− mice)	frequency of resorptions (GRHL-3^−/− mice)	transcriptional activation of the CAT gene [1]	also measured
Nc1nc2ncc(CNc3ccc(C(=O)N[C@@H](CCC(=O)O)C(=O)O)cc3)nc2c(=O)[nH]1 [Folate, folate]	100%	100	did not differ significantly	did not differ significantly		
VP16					transcriptional activation of the CAT gene was observed	
p70 MGR: human mammalian Grainyhead isoform p70, SEQ ID NO:4; first 93 amino acids fused to GAL4 DNA binding domain in b240					transcriptional activation of the CAT gene was observed	transcriptional activity of the En-1 promoter (human En-1 promoter [2]): dramatically enhanced; binding to PCNA promoter probe (Drosophila PCNA promoter): binds; binding to dopa decarboxylase promoter probe [3]: binds; binding to En-1 promoter (human En-1 promoter [4]): binds
O[C@H]1[C@H](O)[C@@H](O)[C@H](O)[C@@H](O)[C@H]1O [Inositol, inositol]	100%*	30	did not differ significantly	did not differ significantly		rescue of spina bifida (incidence, severity) (GRHL-3^−/− mice; GRHL-3^−/− embryos, treatment of pregnant GRHL-3^+/− mice): neither the incidence, nor severity of the spina bifida in the GRHL-3^−/− embryos was alleviated; effect on NTDs / incidence of spina bifida (curly tail (ct/ct) mice; curly tail mice, administered in early gestation / pregnancy): marked reduction; reduction in the incidence of spina bifida (curly tail (ct/ct) mice; inositol-treated ct/ct embryos): 70%
B1					transcriptional activation of the CAT gene was observed	
B2					No activation was observed	
